In ChEMBL document CHEMBL4321799, “Development of the First Low Nanomolar Liver Receptor Homolog-1 Agonist through Structure-guided Design” (J Med Chem, 2019):
Calls of active or inactive are those of the source. No cut-off for these calls is given here.

Assays:
[1] = target: Steroidogenic factor 1 (Homo sapiens) (UniProt Q13285); test: Agonist activity at recombinant full length SF1 (unknown origin) transfected in human HeLa cells incubated for 24 hrs by renilla luciferase reporter gene assay; format: cell-based
Sequence of Steroidogenic factor 1 (Homo sapiens) (Q13285 whole entry): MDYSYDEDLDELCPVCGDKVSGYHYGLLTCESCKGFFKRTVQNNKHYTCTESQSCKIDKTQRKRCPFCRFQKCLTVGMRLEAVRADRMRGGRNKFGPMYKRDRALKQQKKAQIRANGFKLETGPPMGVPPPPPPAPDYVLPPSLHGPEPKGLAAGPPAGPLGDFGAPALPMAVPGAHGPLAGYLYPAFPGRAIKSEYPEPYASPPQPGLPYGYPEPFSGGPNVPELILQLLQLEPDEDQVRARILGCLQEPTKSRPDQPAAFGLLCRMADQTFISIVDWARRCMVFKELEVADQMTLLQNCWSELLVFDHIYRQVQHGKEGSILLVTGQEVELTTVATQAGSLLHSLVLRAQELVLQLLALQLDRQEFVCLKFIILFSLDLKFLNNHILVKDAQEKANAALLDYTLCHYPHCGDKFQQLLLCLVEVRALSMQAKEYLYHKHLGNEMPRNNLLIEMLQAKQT

Mus musculus [2] = species on record: Mus musculus; test: Effect on Cyp11a1 mRNA expression in LRH1 knock-out mouse enteroids at 1 uM pretreated with TNF-alpha followed incubation with compound for overnight by real-time PCR analysis; format: functional
Mus musculus [3] = species on record: Mus musculus; test: Effect on Cyp11b1 mRNA expression in LRH1 knock-out mouse enteroids at 1 uM pretreated with TNF-alpha followed incubation with compound for overnight by real-time PCR analysis; format: functional
[4] = target: Nuclear receptor subfamily 5 group A member 2 (Homo sapiens) (UniProt O00482)
Sequence of Nuclear receptor subfamily 5 group A member 2 (Homo sapiens) (O00482 whole entry): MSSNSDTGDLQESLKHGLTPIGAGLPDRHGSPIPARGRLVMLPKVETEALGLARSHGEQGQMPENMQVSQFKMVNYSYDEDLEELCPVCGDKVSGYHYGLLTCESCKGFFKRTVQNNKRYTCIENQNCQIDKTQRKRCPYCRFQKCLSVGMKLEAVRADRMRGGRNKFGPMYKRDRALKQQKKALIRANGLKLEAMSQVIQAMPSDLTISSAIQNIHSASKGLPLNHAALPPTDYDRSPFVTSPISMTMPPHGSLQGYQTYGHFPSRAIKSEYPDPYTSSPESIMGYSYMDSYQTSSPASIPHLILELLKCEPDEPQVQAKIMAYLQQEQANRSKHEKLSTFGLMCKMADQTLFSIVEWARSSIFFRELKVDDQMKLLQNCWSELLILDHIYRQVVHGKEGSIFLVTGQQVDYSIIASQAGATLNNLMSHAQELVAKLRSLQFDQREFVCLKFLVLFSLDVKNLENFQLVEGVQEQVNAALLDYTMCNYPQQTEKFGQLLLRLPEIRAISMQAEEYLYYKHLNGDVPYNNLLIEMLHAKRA

[5] = test system: Nuclear receptor subfamily 5 group A member 2 (Homo sapiens), O00482 [T352V]; test: Activation of human full length LRH1 T352V mutant transfected in human HeLa cells at 10 uM incubated for 24 hrs by renilla luciferase reporter gene assay; format: cell-based
Sequence of Nuclear receptor subfamily 5 group A member 2 (Homo sapiens), O00482 [T352V] (O00482 whole entry T352V): as the sequence (O00482 whole entry) above, with T352V counted along it

[6] = test system: Nuclear receptor subfamily 5 group A member 2 (Homo sapiens), O00482 [H390A]; test: Activation of human full length LRH1 H390A mutant transfected in human HeLa cells at 10 uM incubated for 24 hrs by renilla luciferase reporter gene assay; format: cell-based
Sequence of Nuclear receptor subfamily 5 group A member 2 (Homo sapiens), O00482 [H390A] (O00482 whole entry H390A): as the sequence (O00482 whole entry) above, with H390A counted along it

[7] = test system: Nuclear receptor subfamily 5 group A member 2 (Homo sapiens), O00482 [M345L]; test: Activation of human full length LRH1 M345L mutant transfected in human HeLa cells at 10 uM incubated for 24 hrs by renilla luciferase reporter gene assay; format: cell-based
Sequence of Nuclear receptor subfamily 5 group A member 2 (Homo sapiens), O00482 [M345L] (O00482 whole entry M345L): as the sequence (O00482 whole entry) above, with M345L counted along it

Activity [1] | ΔTm [4] [°C] | Structure (SMILES) | other results
Active | – | C=C(c1ccccc1)[C@@]12CC[C@H](NS(N)(=O)=O)[C@@H]1CC(CCCCCC)=C2c1ccccc1 (racemic) | Activity (Mus musculus [2]): inactive; Activity (Mus musculus [3]): inactive
Active | – | C=C(c1ccccc1)[C@@]12CC[C@@H](O)[C@@H]1CC(CCCCCC)=C2c1ccccc1 | –
– | 3 to 8 | C=C(c1ccccc1)[C@@]12CC[C@@H](OS(N)(=O)=O)[C@@H]1CC(CCCCCC)=C2c1ccccc1 (racemic) | –
Active | 3 to 8 | C=C(c1ccccc1)[C@@]12CC[C@H](OS(N)(=O)=O)[C@@H]1CC(CCCCCC)=C2c1ccccc1 (racemic) | –
inactive | – | C=C(c1ccccc1)[C@@]12CC[C@H](NC(C)=O)[C@@H]1CC(CCCCCC)=C2c1ccccc1 (racemic) | Activity [5]: Active; Activity [6]: inactive; Activity [7]: Active
– | 3 to 8 | C=C(c1ccccc1)[C@@]12CC[C@H](n3ccnn3)[C@@H]1CC(CCCCCC)=C2c1ccccc1 (racemic) | –
– | 3 to 8 | C=C(c1ccccc1)[C@@]12CC[C@H](OS(=O)(=O)NC(N)=O)[C@@H]1CC(CCCCCC)=C2c1ccccc1 (racemic) | –
